Among the data in patent US12484582B2, “Herbicidal compound” (PRO FARM GROUP, INC., priority 2017, dated 2025) are mortality values, retold here.

Molecules are shown by their SMILES.

In this test the test system is Burgundy amaranth (Amaranthus hypochondriacus). Description: Herbicidal bioassay against Burgundy amaranth (foliar spray, evaluated 6 days after application). It counts as in vivo. Conditions: 144 h, read-out: (%) Mortality/Control at Concentration (μg/mL). The source says:
As noted above, the herbicidal compositions can be chemically synthesized or derived from a biological organism. Here, the culture broth derived from the 100 L fermentation Burkholderia (A396) was extracted to give crude extract. The crude extract was then fractionated using reversed-phase C18 vacuum liquid chromatography (H2O/CH3OH) to give 5 fractions. These fractions were then screened for herbicidal activity using plant assay with Amaranthus hypochondriacus (Burgundy amaranth). The active fractions (F3 & F4) were then subjected to reversed phase HPLC to give pure compounds, which were then tested in the above mentioned bioassay to locate/identify the active compounds. […] To confirm the identity of the compounds, additional spectroscopic data such as LC-MS and NMR were recorded. Based on the detailed analysis of the data, the two compounds were identified as FR 901464 (MW 507) and spliceostatin C (MW 519). Note that different fermentation method would produce different (or no) amount of the below compound(s), some none at all.
Burgundy amaranth (Amaranthus hypochondriacus) plants were grown in a greenhouse to the 3-4 leaf stage in 2.5 cm square pots containing plant growth mix with slow release fertilizer. Treatments were then applied using a research cabinet track sprayer fitted with an 8001 nozzle and at a carrier volume of 20 gal/A. Negative controls were sprayed with water. Pots were blocked and randomized by treatment after spray and placed in a growth room at 25° C. and 50% RH, and watered as necessary. Plants were evaluated 6 days after application for visual damage and fresh weight. Data in Table 1 was subjected to ANOVA and means were separated using the Tukey method with 95% confidence intervals.

Turning to `CC(=O)OC(C)/C=C\C(=O)NC1CC(C)C(C/C=C(C)/C=C/C2OC(C)(O)CC3(CO3)C2O)OC1C` (stereo not shown) [FR901464], the mortality at 0.65 µg/mL was 44% and the mortality at 1.3 µg/mL worked out at 84%.
Regarding `CC(=O)OC(C)/C=C\C(=O)NC1CC(C)C(C/C=C(C)/C=C/C2CC3(CO3)CC(CC(=O)O)O2)OC1C` (stereo not shown) [Spliceostatin C], the mortality at 0.65 µg/mL amounted to 44% and the mortality at 1.3 µg/mL was determined as 80%.
